ChEMBL document CHEMBL1201862, “PubChem BioAssay data set” (2004)
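Test compounds were applied to cells in 96-well plates for 48 hours at 5 doses. At the GI50, growth is halved.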 The source made the active and inactive calls. Cut-off read from the data, not from the text of the source: active = GI50 up to about 1.1 µM and inactive = higher.

Tests used:
Test in all cases: growth of human tumour cells (NCI), 48 h
[1] = tested on: 786-0
[2] = tested on: A498
[3] = tested on: A549
[4] = tested on: ACHN
[5] = tested on: BT-549
[6] = tested on: CAKI-1
[7] = tested on: CCRF-CEM
[8] = tested on: COLO 205
[9] = tested on: DU-145
[10] = tested on: EKVX
[11] = tested on: HCC 2998
[12] = tested on: HCT-116
[13] = tested on: HCT-15
[14] = tested on: HL-60
[15] = tested on: HOP-62
[16] = tested on: HT-29
[17] = tested on: Hs-578T
[18] = tested on: K562
[19] = tested on: KM12
[20] = tested on: M14
[21] = tested on: MCF7
[22] = tested on: MDA-MB-231
[23] = tested on: MDA-MB-435
[24] = tested on: MDA-N
[25] = tested on: Malme-3M
[26] = tested on: NCI-H226
[27] = tested on: NCI-H23
[28] = tested on: NCI-H460
[29] = tested on: NCI/ADR-RES
[30] = tested on: OVCAR-3
[31] = tested on: OVCAR-4
[32] = tested on: OVCAR-5
[33] = tested on: PC-3
[34] = tested on: RPMI-8226
[35] = tested on: RXF 393
[36] = tested on: SF-268
[37] = tested on: SF-295
[38] = tested on: SF-539
[39] = tested on: SK-MEL-28
[40] = tested on: SK-MEL-2
[41] = tested on: SK-MEL-5
[42] = tested on: SK-OV-3
[43] = tested on: SN12C
[44] = tested on: SNB-19
[45] = tested on: SNB-75
[46] = tested on: SR
[47] = tested on: SW-620
[48] = tested on: T47D
[49] = tested on: TK-10
[50] = tested on: U-251
[51] = tested on: UACC-257
[52] = tested on: UACC-62
[53] = tested on: UO-31
[54] = tested on: HOP-92
[55] = tested on: IGROV-1
[56] = tested on: LOX IMVI
[57] = tested on: MOLT-4
[58] = tested on: OVCAR-8
[59] = tested on: NCI-H522

COc1ccc2oc(=N)c(C(=O)Nc3cccc4ccccc34)cc2c1
GI50 [1]: 11.8 µM (inactive)
GI50 [2]: 13.2 µM (inactive)
GI50 [3]: 25.1 µM (inactive)
GI50 [4]: 25.5 µM (inactive)
GI50 [5]: 55.7 µM (inactive)
GI50 [6]: 29.5 µM (inactive)
GI50 [7]: 2.33 µM (inactive)
GI50 [8]: > 100 µM (inactive)
GI50 [9]: 24 µM (inactive)
GI50 [10]: 38.1 µM (inactive)
GI50 [11]: 58.7 µM (inactive)
GI50 [12]: 27.7 µM (inactive)
GI50 [13]: 1.61 µM
GI50 [14]: 23.7 µM (inactive)
GI50 [15]: 11 µM (inactive)
GI50 [16]: 15.1 µM (inactive)
GI50 [17]: 30.2 µM (inactive)
GI50 [18]: 0.526 µM (active)
GI50 [19]: 27.7 µM (inactive)
GI50 [20]: 17.9 µM (inactive)
GI50 [21]: 5.7 µM (inactive)
GI50 [22]: 26 µM (inactive)
GI50 [23]: 0.319 µM (active)
GI50 [24]: 0.456 µM (active)
GI50 [25]: 8.65 µM (inactive)
GI50 [26]: 25.5 µM (inactive)
GI50 [27]: 29.4 µM (inactive)
GI50 [28]: 3.95 µM (inactive)
GI50 [29]: 25.8 µM (inactive)
GI50 [30]: 10.4 µM (inactive)
GI50 [31]: 15.5 µM (inactive)
GI50 [32]: 41.3 µM (inactive)
GI50 [33]: 12.3 µM (inactive)
GI50 [34]: 14.1 µM (inactive)
GI50 [35]: 4.69 µM (inactive)
GI50 [36]: 25.9 µM (inactive)
GI50 [37]: 5.41 µM (inactive)
GI50 [38]: 15.3 µM (inactive)
GI50 [39]: > 100 µM (inactive)
GI50 [40]: 18.8 µM (inactive)
GI50 [41]: > 100 µM (inactive)
GI50 [42]: 15.5 µM (inactive)
GI50 [43]: 37.8 µM (inactive)
GI50 [44]: 13.5 µM (inactive)
GI50 [45]: 10.2 µM (inactive)
GI50 [46]: 0.29 µM (active)
GI50 [47]: 7.57 µM (inactive)
GI50 [48]: 23.6 µM (inactive)
GI50 [49]: 19.6 µM (inactive)
GI50 [50]: 13 µM (inactive)
GI50 [51]: 32 µM (inactive)
GI50 [52]: 2.47 µM (inactive)
GI50 [53]: 13 µM (inactive)

CCn1c2ccccc2c2cc(NC(=O)c3c(C)[nH]c(=O)[nH]c3=S)ccc21
GI50 [2]: > 100 µM (inactive)
GI50 [5]: 31 µM (inactive)
GI50 [6]: > 100 µM (inactive)
GI50 [7]: 29.2 µM (inactive)
GI50 [8]: 22.9 µM (inactive)
GI50 [9]: 42.1 µM (inactive)
GI50 [11]: 47.6 µM (inactive)
GI50 [12]: 43.3 µM (inactive)
GI50 [13]: 41.2 µM
GI50 [14]: 37 µM (inactive)
GI50 [15]: 77.8 µM (inactive)
GI50 [54]: > 100 µM (inactive)
GI50 [16]: 48.2 µM (inactive)
GI50 [17]: 50.4 µM (inactive)
GI50 [55]: > 10 µM (inactive)
GI50 [18]: 28.8 µM (inactive)
GI50 [19]: 18.5 µM (inactive)
GI50 [56]: > 100 µM (inactive)
GI50 [20]: 24.2 µM (inactive)
GI50 [21]: 49.4 µM (inactive)
GI50 [22]: 19.8 µM (inactive)
GI50 [23]: 22.6 µM (inactive)
GI50 [24]: 29.2 µM (inactive)
GI50 [57]: 24.3 µM (inactive)
GI50 [25]: 49.4 µM (inactive)
GI50 [26]: 33 µM (inactive)
GI50 [27]: 38 µM (inactive)
GI50 [28]: 58.3 µM (inactive)
GI50 [29]: > 100 µM (inactive)
GI50 [30]: 35.7 µM (inactive)
GI50 [31]: > 100 µM (inactive)
GI50 [32]: 21.4 µM (inactive)
GI50 [58]: > 100 µM (inactive)
GI50 [33]: 31.8 µM (inactive)
GI50 [34]: 40.6 µM (inactive)
GI50 [35]: 35.6 µM (inactive)
GI50 [37]: 61.4 µM (inactive)
GI50 [39]: 33.3 µM (inactive)
GI50 [40]: 51.3 µM (inactive)
GI50 [41]: 42.1 µM (inactive)
GI50 [42]: > 100 µM (inactive)
GI50 [43]: 69 µM (inactive)
GI50 [44]: 49.1 µM (inactive)
GI50 [45]: > 100 µM (inactive)
GI50 [46]: 41 µM (inactive)
GI50 [47]: 31.7 µM (inactive)
GI50 [48]: > 100 µM (inactive)
GI50 [49]: 53.6 µM (inactive)
GI50 [50]: 31.5 µM (inactive)
GI50 [51]: 70.3 µM (inactive)
GI50 [52]: 31.9 µM (inactive)
GI50 [53]: 51.3 µM (inactive)

Cc1cc(Oc2cnc(=O)[nH]c2)cs1
GI50 [1]: > 100 µM (inactive)
GI50 [2]: > 100 µM (inactive)
GI50 [3]: > 100 µM (inactive)
GI50 [4]: > 100 µM (inactive)
GI50 [5]: > 100 µM (inactive)
GI50 [6]: > 100 µM (inactive)
GI50 [7]: > 100 µM (inactive)
GI50 [8]: > 100 µM (inactive)
GI50 [9]: > 100 µM (inactive)
GI50 [10]: > 100 µM (inactive)
GI50 [11]: > 100 µM (inactive)
GI50 [12]: > 100 µM (inactive)
GI50 [13]: > 100 µM
GI50 [14]: > 100 µM (inactive)
GI50 [15]: > 100 µM (inactive)
GI50 [16]: > 100 µM (inactive)
GI50 [17]: > 100 µM (inactive)
GI50 [55]: > 100 µM (inactive)
GI50 [18]: > 100 µM (inactive)
GI50 [19]: > 100 µM (inactive)
GI50 [56]: > 100 µM (inactive)
GI50 [20]: > 100 µM (inactive)
GI50 [21]: > 100 µM (inactive)
GI50 [22]: > 100 µM (inactive)
GI50 [23]: > 100 µM (inactive)
GI50 [24]: > 100 µM (inactive)
GI50 [57]: > 100 µM (inactive)
GI50 [25]: > 100 µM (inactive)
GI50 [26]: > 100 µM (inactive)
GI50 [27]: > 100 µM (inactive)
GI50 [28]: > 100 µM (inactive)
GI50 [59]: > 100 µM (inactive)
GI50 [29]: > 100 µM (inactive)
GI50 [30]: > 100 µM (inactive)
GI50 [32]: > 100 µM (inactive)
GI50 [58]: > 100 µM (inactive)
GI50 [33]: > 100 µM (inactive)
GI50 [34]: > 100 µM (inactive)
GI50 [36]: > 100 µM (inactive)
GI50 [37]: > 100 µM (inactive)
GI50 [38]: > 100 µM (inactive)
GI50 [39]: > 100 µM (inactive)
GI50 [40]: > 100 µM (inactive)
GI50 [41]: > 100 µM (inactive)
GI50 [42]: > 100 µM (inactive)
GI50 [43]: > 100 µM (inactive)
GI50 [44]: > 100 µM (inactive)
GI50 [45]: > 100 µM (inactive)
GI50 [46]: > 100 µM (inactive)
GI50 [47]: > 100 µM (inactive)
GI50 [48]: > 100 µM (inactive)
GI50 [49]: > 100 µM (inactive)
GI50 [50]: > 100 µM (inactive)
GI50 [51]: > 100 µM (inactive)
GI50 [52]: > 100 µM (inactive)
GI50 [53]: > 100 µM (inactive)
